For test [1], the system named is oral substrate accumulation (dental plaque, calculus, and tooth stain). In words: Twelve month feeding study in cats: oral substrate accumulation by Logan-Boyce quantification. It counts as in vivo, domestic cats. The conditions noted are these: composition comprising 1.2% lactic acid fed to cats for six months. An excerpt: This study was designed to assess the effect of lactic acid on oral substrate accumulation (dental plaque, calculus, and tooth stain) in cats. Initially, all cats received a professional dental prophylaxis at this baseline using standard, well-established procedures. Six and twelve months later, dental substrate accumulation (dental plaque, calculus, and tooth stain) was quantified using the Logan-Boyce quantification method (See Logan E I, Boyce. Oral health assessment in dogs: parameters and methods. J. Vet Dent; 11(2):58-63.) Plaque is measured by applying a disclosing solution (2% aqueous eosin) to the animal's teeth. The teeth to be scored are divided into gingival and occlusal halves, and each half is assigned a separate numerical score for plaque coverage (percentage of the tooth area stained) and thickness (intensity of staining) The score for each tooth half is calculated by multiplying the coverage and thickness scores. The gingival and occlusal scores are then added together for a tooth score. The sum of the teeth scores is identified as the total tooth score, and the whole mouth mean score is calculated by averaging the total teeth scores for each animal. The plaque scoring method gives a number of 0-4 by the percentage of plaque coverage with 0=no plaque detected, 1=1-24% coverage, 2=25-49% coverage, 3=50-74% coverage and 4=75-100% coverage. […]

The test system is the same in test [2]. In words: 28 day feeding study in dogs: oral substrate accumulation by Logan-Boyce quantification. It counts as in vivo, beagle dogs. The conditions noted are these: dog food comprising 1.5% lactic acid fed to dogs for one month. The procedure:
Plaque is measured by applying a disclosing solution (2% aqueous eosin) to the animal's teeth. The teeth to be scored are divided into gingival and occlusal halves, and each half is assigned a separate numerical score for plaque coverage (percentage of the tooth area stained) and thickness (intensity of staining) The score for each tooth half is calculated by multiplying the coverage and thickness scores. The gingival and occlusal scores are then added together for a tooth score. The sum of the teeth scores is identified as the total tooth score, and the whole mouth mean score is calculated by averaging the total teeth scores for each animal. The plaque scoring method gives a number of 0-4 by the percentage of plaque coverage with 0=no plaque detected, 1=1-24% coverage, 2=25-49% coverage, 3=50-74% coverage and 4=75-100% coverage. […] The whole mouth score is calculated by adding the teeth scores and dividing by the number of teeth scored. Calculus is measured by air-drying the teeth to be scored, dividing those teeth vertically into mesial, buccal, and distal thirds, and assigning each third a numerical score based on the percentage of calculus coverage with 0=no calculus detected, 1=1-24% coverage, 2=25-49% coverage, 3=50-74% coverage, and 4=75-100% coverage. […] The whole mouth score is calculated by adding the teeth scores and dividing by the number of teeth scored. […]

As to `CC(O)C(=O)O` (centres unmarked) [lactic acid], the “Effect on formation of dental plaque, calculus and stain (in words)” value in test [1] was “inhibits formation of dental plaque, calculus and stain”. In test [2], the “Effect on tooth calculus and stain (in words)” value was “inhibits tooth calculus and stain”.

Source of the values: US20140314819A1, “COMPOSITIONS AND METHODS FOR TREATING DENTAL CONDITIONS” (HILL'S PET NUTRITION, INC., priority 2011, published 2014).
